Measured values taken from US20070128217A1 (priority 2003, published 2007).

What was measured:
[1] = system: rabbit serum obtained by immunizing a rabbit with the SARS-CoV strain Frankfurt 1; type: binding; parameters: Binding of a rabbit serum to linear peptides / Binding of a rabbit serum to looped peptides / Rabbit serum linear peptides / Rabbit serum looped peptides / Binding of a rabbit serum to linear peptides of protein N of SARS-CoV Urbani (Rabbit serum linear peptides) / Binding of a rabbit serum to looped/cyclic peptides of protein N of SARS-CoV Urbani (Rabbit serum looped peptides): unit not given here
[2] = system: control sera (pooled serum of ten healthy LUMC hospital workers; commercial negative donor pooled serum from the Dutch bloodbank); type: binding, human; parameters: Binding of Control serum LUMC to linear peptides / Binding of Control serum Blood-bank to linear peptides / Binding of Control serum LUMC to looped peptides / Binding of Control Serum Blood-Bank to Looped peptides / Binding of Control serum LUMC to linear peptides of the protein M of SARS-CoV Urbani / Binding of Control serum Blood-bank to linear peptides of the protein M of SARS-CoV Urbani / Binding of Control serum LUMC to looped peptides of the protein M of SARS-CoV Urbani / Binding of Control Serum Blood-Bank to Looped peptides of the protein M of SARS-CoV Urbani: unit not given here
[3] = system: antibodies in sera from SARS patients (sera 1a, 1b, 2, 6, 37, 62, London, SARS-yellow, SARS-green); type: binding, human; parameters: Binding of serum 6 to linear peptides of protein X1 of SARS-CoV Urbani / Binding of serum 37 to linear peptides of protein X1 of SARS-CoV Urbani / Binding of serum 6 to looped/cyclic peptide (PEPSCAN-ELISA) / Binding of serum 37 to looped/cyclic peptide (PEPSCAN-ELISA) / Binding of serum 37 to looped/cyclic peptides of protein X1 of SARS-CoV Urbani / Binding of serum 6 to linear peptides of protein X2 / Binding of serum 37 to linear peptides of protein X2 / Binding of serum 37 to looped/cyclic peptides of protein X2 of SARS-CoV Urbani / Binding of serum 6 to linear peptides of protein M of SARS-CoV Urbani / Binding of serum 37 to linear peptides of protein M of SARS-CoV Urbani / Binding of serum 6 to looped/cyclic peptides of protein M of SARS-CoV Urbani / Binding of serum 37 to looped/cyclic peptides of protein M of SARS-CoV Urbani / Binding of serum 6 to linear peptides of protein X3 of SARS-CoV Urbani / Binding of serum 37 to linear peptides of protein X3 of SARS-CoV Urbani / Binding of serum 37 to looped/cyclic peptides of protein X3 of SARS-CoV Urbani / Binding of serum 6 to linear peptides of protein X4 of SARS-CoV Urbani / Binding of serum 37 to linear peptides of protein X4 of SARS-CoV Urbani / Binding of serum 37 to looped/cyclic peptides of protein X4 of SARS-CoV Urbani / Binding of serum 6 to linear peptides of protein X5 of SARS-CoV Urbani / Binding of serum 37 to linear peptides of protein X5 of SARS-CoV Urbani / Binding of serum 37 to looped/cyclic peptides of protein X5 of SARS-CoV Urbani / Binding of serum 6 to linear peptides of protein N of SARS-CoV Urbani / Binding of serum 37 to linear peptides of protein N of SARS-CoV Urbani / Binding of serum 6 to linear peptide (PEPSCAN-ELISA) / Binding of serum 1a to looped/cyclic peptides of protein N of SARS-CoV Urbani / Binding of serum 1b to looped/cyclic peptides of protein N of SARS-CoV Urbani / Binding of serum 2 to looped/cyclic peptides of protein N of SARS-CoV Urbani / Binding of serum 6 to looped/cyclic peptides of protein N of SARS-CoV Urbani / Binding of serum 37 to looped/cyclic peptides of protein N of SARS-CoV Urbani / Binding of serum 62 to looped/cyclic peptides of protein N of SARS-CoV Urbani / Binding of serum London to looped/cyclic peptides of protein N of SARS-CoV Urbani / Binding of serum SARS-green to looped/cyclic peptides of protein N of SARS-CoV Urbani: unit not given here

MSLYMAISPKFTTSL
Binding of a rabbit serum to linear peptides [1]: 0.3
Binding of a rabbit serum to looped peptides [1]: 0.5
Binding of Control Serum Blood-Bank to Looped peptides [2]: 0.8
Binding of Control serum Blood-bank to linear peptides [2]: 0.7
Binding of Control serum LUMC to linear peptides [2]: 0.6
Binding of Control serum LUMC to looped peptides [2]: 0.9
Binding of serum 1a to linear peptides of protein X2 [3]: 0.8
Binding of serum 1a to looped/cyclic peptides of protein X2 of SARS-CoV Urbani [3]: 0.7
Binding of serum 1b to linear peptides of protein X2 [3]: 0.7
Binding of serum 1b to looped/cyclic peptides of protein X2 of SARS-CoV Urbani [3]: 0.6
Binding of serum 2 to linear peptides of protein X2 [3]: 0.4
Binding of serum 2 to looped/cyclic peptides of protein X2 of SARS-CoV Urbani [3]: 0.4
Binding of serum 6 to linear peptides of protein X2 [3]: 0.3
Binding of serum 6 to looped/cyclic peptides of protein X2 of SARS-CoV Urbani [3]: 0.5
Binding of serum 37 to linear peptides of protein X2 [3]: 0.6
Binding of serum 37 to looped/cyclic peptides of protein X2 of SARS-CoV Urbani [3]: 0.5
Binding of serum 62 to linear peptides of protein X2 [3]: 0.6
Binding of serum 62 to looped/cyclic peptides of protein X2 of SARS-CoV Urbani [3]: 0.8
Binding of serum London to linear peptides of protein X2 [3]: 0.4
Binding of serum London to looped/cyclic peptides of protein X2 of SARS-CoV Urbani [3]: 0.4
Binding of serum SARS-green to linear peptides of protein X2 [3]: 0.5
Binding of serum SARS-green to looped/cyclic peptides of protein X2 of SARS-CoV Urbani [3]: 0.3
Binding of serum SARS-yellow to linear peptides of protein X2 [3]: 0.3
Binding of serum SARS-yellow to looped/cyclic peptides of protein X2 of SARS-CoV Urbani [3]: 0.5

VSQIQLSLLKVTAFQ
Binding of a rabbit serum to linear peptides [1]: 0.6
Binding of a rabbit serum to looped peptides [1]: 0.4
Binding of Control Serum Blood-Bank to Looped peptides [2]: 0.6
Binding of Control serum Blood-bank to linear peptides [2]: 0.5
Binding of Control serum LUMC to linear peptides [2]: 0.8
Binding of Control serum LUMC to looped peptides [2]: 0.6
Binding of serum 1a to linear peptides of protein X2 [3]: 0.5
Binding of serum 1a to looped/cyclic peptides of protein X2 of SARS-CoV Urbani [3]: 0.5
Binding of serum 1b to linear peptides of protein X2 [3]: 0.4
Binding of serum 1b to looped/cyclic peptides of protein X2 of SARS-CoV Urbani [3]: 0.4
Binding of serum 2 to linear peptides of protein X2 [3]: 0.4
Binding of serum 2 to looped/cyclic peptides of protein X2 of SARS-CoV Urbani [3]: 0.4
Binding of serum 6 to linear peptides of protein X2 [3]: 0.5
Binding of serum 6 to looped/cyclic peptides of protein X2 of SARS-CoV Urbani [3]: 0.6
Binding of serum 37 to linear peptides of protein X2 [3]: 0.6
Binding of serum 37 to looped/cyclic peptides of protein X2 of SARS-CoV Urbani [3]: 0.4
Binding of serum 62 to linear peptides of protein X2 [3]: 0.3
Binding of serum 62 to looped/cyclic peptides of protein X2 of SARS-CoV Urbani [3]: 0.6
Binding of serum London to linear peptides of protein X2 [3]: 0.3
Binding of serum London to looped/cyclic peptides of protein X2 of SARS-CoV Urbani [3]: 0.8
Binding of serum SARS-green to linear peptides of protein X2 [3]: 0.1
Binding of serum SARS-green to looped/cyclic peptides of protein X2 of SARS-CoV Urbani [3]: 0.3
Binding of serum SARS-yellow to linear peptides of protein X2 [3]: 0.4
Binding of serum SARS-yellow to looped/cyclic peptides of protein X2 of SARS-CoV Urbani [3]: 0.6

LFLTLIVFTSCELYH
Rabbit serum linear peptides [1]: 0.7
Rabbit serum looped peptides [1]: 0.4
Binding of Control Serum Blood-Bank to Looped peptides [2]: 0.9
Binding of Control serum Blood-bank to linear peptides [2]: 0.7
Binding of Control serum LUMC to linear peptides [2]: 0.7
Binding of Control serum LUMC to looped peptides [2]: 0.9
Binding of serum 1a to linear peptides of protein X4 of SARS-CoV Urbani [3]: 0.7
Binding of serum 1a to looped/cyclic peptides of protein X4 of SARS-CoV Urbani [3]: 0.9
Binding of serum 1b to linear peptides of protein X4 of SARS-CoV Urbani [3]: 0.7
Binding of serum 1b to looped/cyclic peptides of protein X4 of SARS-CoV Urbani [3]: 0.8
Binding of serum 2 to linear peptides of protein X4 of SARS-CoV Urbani [3]: 0.5
Binding of serum 2 to looped/cyclic peptides of protein X4 of SARS-CoV Urbani [3]: 0.8
Binding of serum 6 to linear peptides of protein X4 of SARS-CoV Urbani [3]: 0.5
Binding of serum 6 to looped/cyclic peptides of protein X4 of SARS-CoV Urbani [3]: 0.7
Binding of serum 37 to linear peptides of protein X4 of SARS-CoV Urbani [3]: 0.7
Binding of serum 37 to looped/cyclic peptides of protein X4 of SARS-CoV Urbani [3]: 0.9
Binding of serum 62 to linear peptides of protein X4 of SARS-CoV Urbani [3]: 0.7
Binding of serum 62 to looped/cyclic peptides of protein X4 of SARS-CoV Urbani [3]: 0.9
Binding of serum London to linear peptides of protein X4 of SARS-CoV Urbani [3]: 0.6
Binding of serum London to looped/cyclic peptides of protein X4 of SARS-CoV Urbani [3]: 0.3
Binding of serum SARS-green to linear peptides of protein X4 of SARS-CoV Urbani [3]: 0.7
Binding of serum SARS-green to looped/cyclic peptides of protein X4 of SARS-CoV Urbani [3]: 0.7
Binding of serum SARS-yellow to linear peptides of protein X4 of SARS-CoV Urbani [3]: 0.6
Binding of serum SARS-yellow to looped/cyclic peptides of protein X4 of SARS-CoV Urbani [3]: 0.6
